Test results reported in US10011571B2, “Preparation method for aromatic heterocyclic compound used as selective JAK3 and/or JAK1 kinase inhibitor and application of aromatic heterocyclic compound” (SHENZHEN CHIPSCREEN BIOSCIENCES, LTD., priority 2014, dated 2018).

How the values were obtained:
BLK = BLK (Homo sapiens, UniProt P51451); assay: Eurofins IC50Profiler radiometric kinase assay, BLK; assay type: biochemical; conditions: 9 semilog concentrations
From the text: A proportion of the compounds of the present invention are subjected to kinase profile screening (KinaseProfiler™)) and enzymatic inhibitory activity (IC50Profiler™)) assay by entrusting Eurofins company (http://www.eurofins.com). Besides the kinases in the JAK family, the kinases that have been screened for their activity also include most Group 3F and Group 4 kinases (ITK, BLK, TBK1, VEGFRs, ERBBs, etc.), and blood system related kinases (Zhang J. et al. 2009, Nat. Rev. Cancer., 9: 28-39). The concentration of the test compound for kinase profile screening is 1 μM, and a gradient of 9 semilog concentration gradients are used to determine IC50. Detection is carried out according to standard procedure of Eurofins Company. Briefly, according to the requirements of different kinase reactions, 0.2 μL test compound (50 μM, dissolved in dimethyl sulfoxide (DMSO)) is added to reaction buffer containing specific kinase (the buffer system containing 20 mM MOPS, 1 mM EDTA, 0.01% Brij-35, 5% Glycerol, 0.1% β-mercaptoethanol, 1 mg/mL BSA, or 50 mM TRIS, 0.1 mM EGTA, 0.1 mM Na3VO4, 0.1% β-mercaptoethanol, 1 mg/mL BSA, based on the type of kinase used). Subsequently, a kinase specific substrate at a final concentration of 50 μM (specific substrate used for specific kinase), 10 mM Mg Acetate and isotope-labeled γ-^33P ATP (radio-activity of about 500 cpm/pmol) are sequentially added to a total volume of 10 μL for the reaction system. After incubation at room temperature for 40 min, the reaction is terminated by adding 3% phosphoric acid solution. The mixture is then transferred to a filter-type low temperature spray dryer (P30 filtermat), and washed by 75 mM phosphoric acid solution for 3 times and by methanol once. After drying, radio-activity is detected. For specific procedure, see the standard procedure provided by Eurofins Company: http://www.eurofins.com/media/9724077/kinaseprofiler_assay_protocol_guide_eurofins_v64.pdf).

CTLL-2 cells = assay: Cell growth activity assay (MTS), CTLL-2 cell model; assay type: cell-based, mouse; conditions: Mus musculus; for activity at 0.3 µM: CTLL-2, 300 nM, 24 h, read-out: CTLL-2 % growth rate @300 nM; for GI50: CTLL-2, 24 h
Outline: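 Mouse IL-2-dependent T-cell line seeded ~20,000 cells/well, compounds added after 24 h at gradient concentrations (top 10 μM; CTLL-2 evaluation at 300 nM), cultured another 24 h. MTS/PMS added, 2 h at 37° C, absorbance 490 nm; inhibition vs DMSO control after negative-control background subtraction, GI50 calculated; triplicate.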

[1] = test system: IL-2/JAK1 & 3/STAT5 (hPBC); assay: Intracellular activity assay, IL-2 induced STAT5 phosphorylation in hPBC; assay type: cell-based; conditions: Homo sapiens; inhibition of STAT5 phosphorylation, activated hPBC, IL-2 10 ng/mL
From the text: In this experiment, western blot (WB) and flow cytometry are used to evaluate the intracellular activities of the test compounds by comparing the relative levels of the signals of phosphorylated and non-phosphorylated STATs in 5 cell models, including U937, THP-1, CTLL-2, UT-7/EPO and activated human periphery blood cell (hPBC). The primary antibody and secondary antibody used in WB hybridization in this experiment are purchased from Cell Signaling Company (http://www.cellsignal.com). The fluorescence-labeled antibodies used in flow cytometry are purchased from eBiosciences Company (http://www.ebioscience.com).
Cytokine IL-2 dependent proliferation is formed after activation by co-stimulation of human periphery blood cell (hPBC) with CD3 antibody. The growth signal pathway is mediated by the heterodimer of JAK1/3 and induces the phosphorylation of downstream STAT5. The intracellular inhibitory activity of the compounds on JAK1/3 can be evaluated by detecting the change of the phosphorylation level of STAT5.
(1) Treatment by the compound: the experiment is carried out in a 6-well plate. […]
(2) Cell fixation and fluorescence labeling: the cells are fixed using paraformaldehyde (30 min), and subsequently treated for membrane permeability in chilled methanol (15 min). […]
(3) Detection by flow cytometry: the detection is carried out using Guava® easyCyte flow cytometer according to the instruction. The median fluorescent intensity (MFI) of a sample is detected using an appropriate cell population. On such a basis, the relative signal intensities are calculated for the phosphorylated STATs treated by the compounds at different concentrations by reference to the signal of the negative (with no factor stimulation) and the positive control (with both factor stimulation and solvent control) in the experiment, so that the IC50 of the compound for the inhibitory activity on STATs phosphorylation can be evaluated.

BLK, sequence (P51451 2-505 limits assumed): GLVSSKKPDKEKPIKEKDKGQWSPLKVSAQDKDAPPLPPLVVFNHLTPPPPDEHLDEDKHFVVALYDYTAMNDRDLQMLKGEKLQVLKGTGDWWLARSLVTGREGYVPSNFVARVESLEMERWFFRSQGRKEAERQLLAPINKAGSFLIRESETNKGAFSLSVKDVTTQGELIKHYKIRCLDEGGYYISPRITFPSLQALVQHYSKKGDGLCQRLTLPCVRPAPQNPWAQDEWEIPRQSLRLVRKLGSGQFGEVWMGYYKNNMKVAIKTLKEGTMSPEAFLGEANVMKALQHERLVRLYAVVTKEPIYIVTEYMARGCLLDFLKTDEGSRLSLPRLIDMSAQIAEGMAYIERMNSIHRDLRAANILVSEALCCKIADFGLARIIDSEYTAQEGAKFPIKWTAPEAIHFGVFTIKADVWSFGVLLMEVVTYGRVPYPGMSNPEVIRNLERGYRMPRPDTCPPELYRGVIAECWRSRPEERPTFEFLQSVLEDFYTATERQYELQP

Structure (SMILES)	IC50 (BLK)	activity at 0.3 µM (CTLL-2 cells)	GI50 (CTLL-2 cells)	IC50 [1]
C=CC(=O)N(C)c1cc(Nc2ncc(Cl)c(NCCCNC(=O)c3ccc(F)cc3)n2)ccc1F [Example 23, N-(3-(5-chloro-2-(4-fluoro-3-(N-methylacrylamido)phenylamino)pyrimidinyl-4-amino)propyl)-4-fluorobenzamide]	855 nM	4%	140 nM	240 nM
C=CC(=O)N(C)c1cc(Nc2ncc(Cl)c(NCCCNC(=O)c3ccc(C#N)cc3)n2)ccc1F [Example 7, N-(3-(5-chloro-2-(4-fluoro-3-(N-methylacrylamido)phenylamino)pyrimidinyl-4-amino)propyl)-4-cyano-benzamide]	286 nM	10%	116 nM	160 nM
C=CC(=O)N(C)c1cc(Nc2ncc(Cl)c(NCCCNC(=O)c3ccc(C(F)(F)F)cc3)n2)ccc1F [Example 22, N-(3-(5-chloro-2-(4-fluoro-3-(N-methylacrylamido)phenylamino)pyrimidinyl-4-amino)propyl)-4-trifluoromethylbenzamide]	1660 nM	7%	249 nM	200 nM
